The nature of series [1]: Partition coefficient between 2-octanol and pH 7.4 buffered saline. In kind it is physicochemical. To be noted: for LogP, partition coefficient: pH 7.4. The text has this:
(§1) The relative photoactivities of the three photosensitizers studied herein were gauged by their abilities to generate singlet oxygen (^1O2) when illuminated with a beam of red light having an adjusted intensity such that each dye absorbed the same number of photons per unit time. […] Finally, because of the relevance of lipophilicity to the present studies, the partition coefficients for the PS between 2-octanol and phosphate-buffered saline (pH=7.4) are listed^18.

Series [2] deals with Escherichia coli (ATCC 25922). Briefly: Photodynamic inactivation of E. coli (survival fraction by CFU after red light). In kind it is cell-based. As to conditions: 5 μM dye. The text has this: (§2) The microorganisms studied were Escherichia coli (ATCC 25922), Enterococcus faecalis (ATCC 29212), and Candida albicans (ATCC 18804). The microorganism species chosen to evaluate the photoactivities of the dyes in the present study are important pathogens in the type of infections, such as wounds and burns, likely to be amenable to photodynamic therapy (PDT). E. faecalis is typical of Enterococci that frequently develop vancomycin resistance and are important nocosomial pathogens in post-surgical wounds and burns.^42 Although E. coli is generally thought of as an intestinal or urinary tract pathogen, there is increasing concern about its presence in wound infections and its ability to develop extended spectrum beta-lactamase resistance.^43,44 C. albicans is increasingly found in nocosomial infections in burns^45 and, to a lesser extent, in surgical wounds.^46
(§3) Cells were grown at 37° C. in aerobic conditions in a shaker at 150 rpm. Brain-heart infusion broth (Difco, BD Diagnostic Systems, Sparks, Md.) was used for E. coli and E. faecalis, YM medium (Difco) was used for C. albicans. Exponential cultures obtained by reculturing stationary overnight precultures were used for all experiments. E. coli and E. faecalis were grown in fresh medium for approximately 1 h to a density of 10^8 cells/mL; the OD values at 650 nm were 0.6. C. albicans was grown for approximately 4 h to approximate density of 10^7 cells/mL corresponding to an OD of 6 at 650 nm (ten fold dilution measured). Exact cell numbers were confirmed by counting colony forming units obtained after serial dilution on square BHI (or YM for Candida) agar plates.
(§4) Stock solutions (2 mM) of the three chalcogen dyes were prepared in water and stored at 4° C. in the dark for no longer than 1 month before use. A non-coherent light source with interchangeable fiber bundles (LumaCare, London, UK) was employed. Thirty-nm band pass filters allowed total powers of roughly 1 W to be obtained from 630+/−15 nm for EtNBA (1), 652+/−15 nm for EtNBS (2), and 660+/−15 nm for EtNBSe (3).
Suspensions of microorganisms were incubated for 10 minutes with photosensitizer in the dark at room temperature. Unbound photosensitizer was washed out by centrifugation of the mixture of dye and microorganisms for 6 minutes at 1550g, followed by resuspension of washed pellets in 10 mL PBS without Ca^++/Mg^++. Aliquots (200 μL) of these suspensions were used for photodynamic inactivation (PDI) experiments; the remaining suspensions were centrifuged again, and the pellets were dissolved in 3 mL 10% SDS for at least 24 hours. These suspensions were used for photosensitizer uptake measurement. The fluorescence of dissolved pellets was measured on a spectrofluorimeter (FluoroMax3, SPEX Industries, Edison, N.J.). For EtNBA (1), the excitation wavelength was 625 nm, and the emission spectra of the solution were recorded from 630 to 750 nm. […] For EtNBSe (3), the excitation wavelength was 655 nm, and the emission was recorded in the range from 660 to 750 nm. The fluorescence was calculated from the height of the peaks recorded. […] Uptake values were obtained by dividing the number of nmol of sensitizer in the dissolved pellet by the number of colony-forming units (CFU) obtained by serial dilutions and the number of photosensitizer molecules/cell calculated using Avogadro's number.
(§5) Illumination was performed either after or before excess dye was washed out. […] Exact power was measured with a laser power meter (model FM/GS, Coherent, Santa Clara, Calif.).

Series [3] can be described thus: Quantum yield of singlet oxygen formation (1,3-diphenylisobenzofuran bleaching). It counts as physicochemical. To be noted: 1,3-diphenylisobenzofuran method, relative to Methylene Blue, 25° C.
From the text: All solvents were reagent grade and used as received.
as §1

The subject of series [4] is Candida albicans (ATCC 18804). Briefly: Dye uptake and binding by microbial cells, C. albicans (fluorescence of SDS-dissolved pellets). It counts as cell-based. As to conditions: 20 μM dye. As to the method:
(§6) Suspensions of microorganisms were incubated for 10 minutes with photosensitizer in the dark at room temperature. Unbound photosensitizer was washed out by centrifugation of the mixture of dye and microorganisms for 6 minutes at 1550g, followed by resuspension of washed pellets in 10 mL PBS without Ca^++/Mg^++. Aliquots (200 μL) of these suspensions were used for photodynamic inactivation (PDI) experiments; the remaining suspensions were centrifuged again, and the pellets were dissolved in 3 mL 10% SDS for at least 24 hours. These suspensions were used for photosensitizer uptake measurement. The fluorescence of dissolved pellets was measured on a spectrofluorimeter (FluoroMax3, SPEX Industries, Edison, N.J.). For EtNBA (1), the excitation wavelength was 625 nm, and the emission spectra of the solution were recorded from 630 to 750 nm. For EtNBS (2), the excitation wavelength was 645 nm, and the range for emission was 650 to 750nm. For EtNBSe (3), the excitation wavelength was 655 nm, and the emission was recorded in the range from 660 to 750 nm. The fluorescence was calculated from the height of the peaks recorded. Calibration curves were made from pure photosensitizer dissolved in 10% SDS and used for determination of sensitizer concentration in the suspension. Uptake values were obtained by dividing the number of nmol of sensitizer in the dissolved pellet by the number of colony-forming units (CFU) obtained by serial dilutions and the number of photosensitizer molecules/cell calculated using Avogadro's number.
(§7) In order to do so, the uptake of dye was measured in terms of molecules per cell by carrying out 10 minute incubations with the same concentration of dyes that was used for photoinactivation, followed by a wash to remove residual incubating solution.
(§8) The bacterial pellets resulting from the incubation with photosensitizer were dissolved in 10% SDS to give a homogeneous solution, and comparison of the resulting fluorescence intensities with a calibration curve prepared with known concentrations of dye in the same solvent yielded the amount of dye in the pellet. […] For the fungus C. albicans, an even higher concentration of dye (20 μM) was used, because the eukaryotic cells are ten times bigger than the prokaryotic bacterial cells.

For series [5] the following is noted: in vivo; cited from earlier work.
Series [6] has as its system Candida albicans (ATCC 18804). Nature of the series: Photodynamic inactivation of C. albicans (survival fraction by CFU after red light). In kind it is cell-based. As to conditions: 20 μM dye, wash.
From the text: as §2
Cells were grown at 37° C. in aerobic conditions in a shaker at 150 rpm. […] C. albicans was grown for approximately 4 h to approximate density of 10^7 cells/mL corresponding to an OD of 6 at 650 nm (ten fold dilution measured). […]
Suspensions of microorganisms were incubated for 10 minutes with photosensitizer in the dark at room temperature. […] The fluorescence of dissolved pellets was measured on a spectrofluorimeter (FluoroMax3, SPEX Industries, Edison, N.J.). For EtNBA (1), the excitation wavelength was 625 nm, and the emission spectra of the solution were recorded from 630 to 750 nm. […] For EtNBSe (3), the excitation wavelength was 655 nm, and the emission was recorded in the range from 660 to 750 nm. The fluorescence was calculated from the height of the peaks recorded. […] Uptake values were obtained by dividing the number of nmol of sensitizer in the dissolved pellet by the number of colony-forming units (CFU) obtained by serial dilutions and the number of photosensitizer molecules/cell calculated using Avogadro's number.
as §5

Series [7] concerns Enterococcus faecalis (ATCC 29212). Briefly: Dye uptake and binding by microbial cells, E. faecalis (fluorescence of SDS-dissolved pellets). In kind it is cell-based. As to conditions: 2 μM dye; for cell uptake (molecules per cell), rank order: 10 minute incubation, wash. The protocol: as §6, §7, §8
For series [8] the test system is unchanged. Nature of the series: Photodynamic inactivation of E. faecalis (survival fraction by CFU after red light). It counts as cell-based. As to conditions: 2 μM dye.
From the text: as §2, §3, §4, §6
Illumination was performed either after or before excess dye was washed out. Aliquots of 200 μL of cell suspension were placed in 96-well plates and illuminated with appropriate light at room temperature. Fluences ranged from 0 to 80 Jcm^−2 at an irradiance of 60-100 mWcm^−2. Exact power was measured with a laser power meter (model FM/GS, Coherent, Santa Clara, Calif.).

Series [9] deals with Escherichia coli (ATCC 25922). Nature of the series: Dye uptake and binding by microbial cells, E. coli (fluorescence of SDS-dissolved pellets). In kind it is cell-based. To be noted: 5 μM dye; for cell uptake (molecules per cell), rank order: 10 minute incubation, wash. As to the method: as §6, §7, §8
The nature of series [10]: Absorption and fluorescence spectra, fluorescence quantum yield. To be noted: for λfl(nm), fluorescence maximum: in ethanol; for λabs(nm), absorption maximum: in ethanol containing 0.1% acetic acid; for Φfl, absolute fluorescence quantum yield: relative to Cresyl Violet standard at 25° C.
Protocol: UV/visible absorption spectra were recorded using an HP 8453 spectrophotometer. Corrected fluorescence spectra were recorded using a SPEX Fluorolog2 (solvent measurements) or a FluoroMax3 (microorganism measurements), SPEX Industries, Edison, N.J. Fluorescence quantum yields were measured relative to Cresyl Violet standard at 25° C.^32 Quantum yields for ^1O2 formation were determined by measuring the ^1O2-mediated bleaching of 1,3-diphenylisobenzofuran^12 relative to Methylene Blue (0.50)^33 at 25° C. ^1H NMR spectra were obtained using a Varian 400 MHz spectrometer with TMS as internal standard.
The conditions of series [11]: reference standard value, 25° C.; cited from earlier work.

The logP is the decadic logarithm of the partition coefficient of the neutral form, usually between octanol and water.

“5-ethylamino-9-diethylaminobenzo[a]phenothiazinium [Dye 2]”: the “LogP, partition coefficient” value in [1] was 2.76. The killing of cells result is on record as “more than 99%” in [2] (wash, 64 J/cm^2); greater than 98% in series [6] (64 J/cm^2); greater than 99.9% in [8] (wash, 64 J/cm^2 of 652-nm light). Moreover, the “1O2, absolute quantum yield for singlet oxygen formation” value (from here on “1O2, absolute quantum yield”) in series [3] turned out to be 0.03. In addition, the “fraction of total dye added that was bound to the cells” value in [4] is “essentially quantitative”; in series [9] it was “approximately 75%”. Further, the “toxicity in the dark” value in series [5] was “little or no toxicity in the dark”. For the same molecule, the “cell uptake (molecules per cell), rank order” value in [7] and in [9] was “EtNBSe (3)>EtNBS (2)>EtNBA (1)” in each case. Further, the “comparison of killing curves with and without a wash” value in series [8] is “the two curves are almost identical”. For the same molecule, the “λfl(nm), fluorescence maximum” value in series [10] is given as 693 nm. Also, in [10], the “λabs(nm), absorption maximum” value was 654 nm. Besides, the “Φfl, absolute fluorescence quantum yield” value in [10] worked out at 0.21.

As to `CCNc1cc2[o+]c3cc(N(CC)CC)ccc3nc2c2ccccc12` [Dye 1, 5-Ethylamino-9-diethylaminobenzo[a]phenoxazinium], the “LogP, partition coefficient” value in series [1] was determined as 2.69. In addition, the killing of cells in series [2] (wash, 80 J/cm^2) is 90%; in [6] (80 J/cm^2), greater than 97%; in [8] (wash, 80 J/cm^2 of 635-nm light), 95%. Further, the “1O2, absolute quantum yield” value in series [3] was determined as 0.003. Moreover, in series [4], the “fraction of total dye added that was bound to the cells” value is given as “approximately 75%”. The “cell uptake (molecules per cell), comparison with EtNBSe (3)” value in [4] (10 minute incubation, wash) is “significantly lower”. In addition, the “toxicity in the dark” value in series [5] is on record as “little or no toxicity in the dark”. Further, the “cell uptake (molecules per cell), rank order” value in series [7] and in series [9] was “EtNBSe (3)>EtNBS (2)>EtNBA (1)” throughout. Also, the “λfl(nm), fluorescence maximum” value in [10] is 660 nm. For the same molecule, the “λabs(nm), absorption maximum” value in series [10] was 632 nm. In addition, the “Φfl, absolute fluorescence quantum yield” value in [10] is 0.27.

Molecule `CCN=c1cc2[se]c3cc(N(CC)CC)ccc3nc-2c2ccccc12` [Dye 3, 5-Ethylamino-9-diethylaminobenzo[a]phenoselenazinium chloride] yielded a logP in [1] (between 2-octanol and pH 7.4 buffered saline) of 2.08. Besides, the “comparison of killing curves with and without a wash” value in series [2] was “bacteria washed free of incubating solution were actually killed slightly (but not significantly) more than those of the non-wash group”; in series [8], “no significant difference in the two killing curves”. Further, the killing of cells in series [2] (wash, 32 J/cm^2) is recorded as greater than 99.9999%; in series [6] (4 J/cm^2) it was “more than 99%”; in series [8] (wash, 8 J/cm^2 of 660-nm light), greater than 99.999%. In addition, the “killing of cells (logs)” value in series [2] (wash, 32 J/cm^2) is listed as greater than 6 logs; in series [8] (wash, 8 J/cm^2 of 660-nm light), 5.5 logs. Also, in series [3], the “1O2, absolute quantum yield” value came out at 0.78. Further, the “fraction of total dye added that was bound to the cells” value was “essentially quantitative” in [4], “approximately 75%” in [7] and “essentially quantitative” in series [9]. Besides, the “cell uptake (molecules per cell), rank order” value in series [7] and in [9] was “EtNBSe (3)>EtNBS (2)>EtNBA (1)” in each case. Further, the “λfl(nm), fluorescence maximum” value in series [10] was 703 nm. In series [10], the “λabs(nm), absorption maximum” value turned out to be 661 nm. For the same molecule, the “Φfl, absolute fluorescence quantum yield” value in [10] is on record as 0.03.

Regarding `CN(C)c1ccc2nc3ccc(=[N+](C)C)cc-3sc2c1` [Methylene Blue], the “quantum yield for 1O2 formation of the standard” value in series [11] is recorded as 0.50.

(Values after US20080015189A1, “Antimicrobial photoinactivation using chalcogen analogs of benzo(A)phenoxazinium dyes” (The General Hospital Corporation, priority 2006, published 2008).)
